# Reference: PubChem BioAssay (NCI)
# Values joined by “and” are separate entries in the source; they are usually repeats but may differ in a detail not shown here. Equal values may be shown once.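 Results reflect a 48-hour exposure of cells in 96-well plates to compound at five concentrations. GI50: concentration for 50% inhibition of growth. At the TGI there is no net growth.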
# Key:
# Assay in all cases: growth of human tumour cells (NCI), 48 h
# [1] = tested on: ACHN renal
# [2] = tested on: EKVX NSCLC
# [3] = tested on: HOP-62 NSCLC
# [4] = tested on: K-562 leukemia
# [5] = tested on: KM12 colon
# [6] = tested on: MALME-3M melanoma
# [7] = tested on: MDA-MB-435
# [8] = tested on: NCI-H226 lung
# [9] = tested on: OVCAR-3 ovarian
# [10] = tested on: OVCAR-4 ovarian
# [11] = tested on: RXF 393 renal
# [12] = tested on: SK-MEL-28 melanoma
# [13] = tested on: SK-MEL-5 melanoma
# [14] = tested on: SK-OV-3 ovarian
# [15] = tested on: SNB-75 CNS
# [16] = tested on: SR leukemia
# [17] = tested on: T-47D breast
# [18] = tested on: UO-31 renal
# [19] = tested on: MCF7 breast
smiles,measurement,setting,value
O=[N+]([O-])c1ccc(-c2nn3c(C45CC6CC(CC(C6)C4)C5)nnc3s2)c(Cl)c1,TGI,[1],> 100 µM
same,TGI,[2],> 100 µM
same,TGI,[3],> 100 µM
same,TGI,[4],> 100 µM
same,TGI,[5],> 100 µM
same,TGI,[6],> 100 µM
same,TGI,[7],> 100 µM
same,TGI,[8],> 100 µM
same,TGI,[9],> 100 µM
same,TGI,[10],> 100 µM
same,TGI,[11],> 100 µM
same,TGI,[12],> 100 µM
same,TGI,[13],> 100 µM
same,TGI,[14],> 100 µM
same,TGI,[15],> 100 µM
same,TGI,[16],> 100 µM
same,TGI,[17],> 100 µM
same,TGI,[18],> 100 µM
CCOC(=O)CCC(NC(=O)c1ccc(NC(OC)c2nc3cc(C(F)(F)F)ccc3nc2-c2ccccc2)cc1)C(=O)OCC (centres undefined),TGI,[1],30.2 µM
same,TGI,[2],33.6 µM
same,TGI,[3],31.2 µM
same,TGI,[4],> 26.6 µM
same,TGI,[5],19.1 µM
same,TGI,[6],31.3 µM
same,TGI,[8],35 µM
same,TGI,[9],35.8 µM
same,TGI,[10],55.1 µM
same,TGI,[11],27.2 µM
same,TGI,[12],31.6 µM
same,TGI,[13],30 µM
same,TGI,[14],34.9 µM
same,TGI,[15],36.5 µM
same,TGI,[16],> 100 µM
same,TGI,[18],26.8 µM
CCOC(=O)C1=C(OC(OCC)C(CC)[Se]c2ccccc2)CCC1 (centres undefined),TGI,[1],> 100 µM
same,TGI,[2],91.2 µM
same,TGI,[3],> 100 µM
same,TGI,[4],> 100 µM
same,TGI,[5],> 100 µM
same,TGI,[6],56.7 µM
same,TGI,[8],53.5 µM
same,TGI,[9],69.3 µM
same,TGI,[10],28 µM
same,TGI,[11],37.7 µM
same,TGI,[12],92.8 µM
same,TGI,[13],31.2 µM
same,TGI,[14],> 100 µM
same,TGI,[15],69.8 µM
same,TGI,[16],83.4 µM
same,TGI,[18],96.2 µM
CN1CCc2ccccc2C(C(=O)c2ccc3c(c2)OCO3)C1=O (centres undefined),TGI,[1],> 100 µM
same,TGI,[3],> 100 µM
same,TGI,[4],> 100 µM
same,TGI,[5],> 100 µM
same,TGI,[6],> 100 µM
same,TGI,[8],> 100 µM
same,TGI,[9],> 100 µM
same,TGI,[10],> 100 µM
same,TGI,[11],> 100 µM
same,TGI,[12],> 100 µM
same,TGI,[13],> 100 µM
same,TGI,[14],> 100 µM
same,TGI,[15],> 100 µM
same,TGI,[18],> 100 µM
Cc1ccc(-c2cc(-c3ccccc3)c(C#N)c(=O)[nH]2)cc1,TGI,[1],> 100 µM
same,TGI,[2],> 100 µM
same,TGI,[3],> 100 µM
same,TGI,[4],> 100 µM
same,TGI,[5],> 100 µM
same,TGI,[6],> 100 µM
same,TGI,[8],> 100 µM
same,TGI,[9],> 100 µM
same,TGI,[10],> 100 µM
same,TGI,[11],> 100 µM
same,TGI,[12],> 100 µM
same,TGI,[13],> 100 µM
same,TGI,[14],> 100 µM
same,TGI,[15],> 100 µM
same,TGI,[16],> 100 µM
same,TGI,[18],> 100 µM
COc1cc([C@@H]2c3cc4c(cc3[C@@H](NCc3cccc(C#N)c3)C3COC(=O)[C@@H]32)OCO4)cc(OC)c1O (some centres undefined),TGI,[1],1.58 µM
same,TGI,[2],6.58 µM
same,TGI,[3],1.79 µM
same,TGI,[4],25.4 µM
same,TGI,[5],4.66 µM
same,TGI,[6],9.58 µM
same,TGI,[8],2.4 µM
same,TGI,[9],8.47 µM
same,TGI,[10],> 100 µM
same,TGI,[11],19.6 µM
same,TGI,[12],46.1 µM
same,TGI,[13],13 µM
same,TGI,[14],4.12 µM
same,TGI,[15],4.45 µM
same,TGI,[18],5.52 µM
C=C1C2=C(CCCC2)C(=O)OC12CCCCC2,TGI,[1],> 100 µM
same,TGI,[2],> 100 µM
same,TGI,[3],> 100 µM
same,TGI,[4],> 100 µM
same,TGI,[5],> 100 µM
same,TGI,[6],> 100 µM
same,TGI,[8],> 100 µM
same,TGI,[9],> 100 µM
same,TGI,[10],> 100 µM
same,TGI,[11],> 100 µM
same,TGI,[12],> 100 µM
same,TGI,[13],> 100 µM
same,TGI,[14],> 100 µM
same,TGI,[15],> 100 µM
same,TGI,[16],> 100 µM
same,TGI,[18],> 100 µM
OCC(O)C(O)C(O)c1nn(-c2ccc(F)cc2)c2nc3cc(Cl)c(Cl)cc3nc12 (centres undefined),TGI,[2],49.2 µM
same,TGI,[3],28.8 µM
same,TGI,[4],43.2 µM
same,TGI,[5],84.8 µM
same,TGI,[6],23.5 µM
same,TGI,[8],49.4 µM
same,TGI,[9],49.5 µM
same,TGI,[10],> 100 µM
same,TGI,[11],36.9 µM
same,TGI,[12],41.9 µM
same,TGI,[14],46.4 µM
same,TGI,[15],13.2 µM
same,TGI,[18],> 100 µM
COc1ccc(/C=C\c2cc(OC)c(OC)c(OC)c2)cc1,TGI,[1],> 100 µM
same,TGI,[3],> 100 µM
same,TGI,[4],> 100 µM
same,TGI,[5],> 100 µM
same,TGI,[6],> 100 µM
same,TGI,[8],0.222 µM and 0.0693 µM
same,TGI,[9],0.000152 µM
same,TGI,[13],14.5 µM
same,GI50,[14],99.3 µM
same,TGI,[14],> 100 µM
same,TGI,[15],0.000932 µM
same,TGI,[16],78.7 µM
same,TGI,[18],8.66 µM
Cc1cc(C)nc(NS(=O)(=O)c2ccc(Nc3c4ccccc4nc4c(C(=O)NCCN(C)C)cccc34)cc2)n1,TGI,[1],15.9 µM
same,TGI,[2],23.6 µM
same,TGI,[3],14.5 µM
same,TGI,[4],17.8 µM
same,TGI,[5],18.4 µM
same,TGI,[8],6.21 µM
same,TGI,[10],11.9 µM
same,TGI,[11],20.2 µM
same,TGI,[12],20.4 µM
same,TGI,[13],18.8 µM
same,TGI,[15],24.4 µM
same,TGI,[16],43.7 µM
same,TGI,[18],5.89 µM
COC(=O)[C@@](NC(=O)OCc1ccccc1)([C@H](C)O)C(F)(F)F,TGI,[1],> 100 µM
same,TGI,[2],> 100 µM
same,TGI,[3],> 100 µM
same,TGI,[4],> 100 µM
same,TGI,[5],> 100 µM
same,TGI,[6],> 100 µM
same,TGI,[7],> 100 µM
same,TGI,[8],> 100 µM
same,TGI,[9],> 100 µM
same,TGI,[10],> 100 µM
same,TGI,[11],> 100 µM
same,TGI,[12],> 100 µM
same,TGI,[13],> 100 µM
same,TGI,[14],> 100 µM
same,TGI,[15],> 100 µM
same,TGI,[16],> 100 µM
same,TGI,[17],> 100 µM
same,TGI,[18],> 100 µM
CCCNCCCCC(NC(C)=O)C(=O)NCc1ccccc1 (centres undefined),TGI,[1],> 100 µM
same,TGI,[2],> 100 µM
same,TGI,[3],> 100 µM
same,TGI,[4],> 100 µM
same,TGI,[5],> 100 µM
same,TGI,[6],> 100 µM
same,TGI,[8],> 100 µM
same,TGI,[9],> 100 µM
same,TGI,[10],> 100 µM
same,TGI,[11],> 100 µM
same,TGI,[12],> 100 µM
same,TGI,[13],> 100 µM
same,TGI,[14],> 100 µM
same,TGI,[15],> 100 µM
same,TGI,[18],> 100 µM
CC1(C)OC(=O)C(=C2CCC(C(=O)Nc3cccc(C(F)(F)F)c3)N2)C(=O)O1 (centres undefined),TGI,[1],> 100 µM
same,TGI,[2],> 100 µM
same,TGI,[3],> 100 µM
same,TGI,[4],> 100 µM
same,TGI,[5],> 100 µM
same,TGI,[6],> 100 µM
same,TGI,[8],> 100 µM
same,TGI,[9],> 100 µM
same,TGI,[10],> 100 µM
same,TGI,[11],> 100 µM
same,TGI,[12],> 100 µM
same,TGI,[13],> 100 µM
same,TGI,[14],> 100 µM
same,TGI,[15],> 100 µM
same,TGI,[18],> 100 µM
O=C(NCCN1CCCCC1)c1cccc(I)c1,TGI,[1],> 100 µM
same,TGI,[2],> 100 µM
same,TGI,[4],> 100 µM
same,TGI,[5],> 100 µM
same,TGI,[19],> 100 µM
same,TGI,[8],> 100 µM
same,TGI,[9],> 100 µM
same,TGI,[10],> 100 µM
same,TGI,[11],> 100 µM
same,TGI,[12],> 100 µM
same,TGI,[13],> 100 µM
same,TGI,[14],> 100 µM
same,TGI,[15],> 100 µM
same,TGI,[16],> 100 µM
same,TGI,[18],> 100 µM
CCSC1=N/C(=C\c2ccco2)C(=O)N1,TGI,[1],> 100 µM
same,TGI,[2],> 100 µM
same,TGI,[3],> 100 µM
same,TGI,[4],> 100 µM
same,TGI,[5],> 100 µM
same,TGI,[6],> 100 µM
same,TGI,[19],> 100 µM
same,TGI,[7],> 100 µM
same,TGI,[8],> 100 µM
same,TGI,[9],> 100 µM
same,TGI,[12],> 100 µM
same,TGI,[13],> 100 µM
same,TGI,[14],> 100 µM
same,TGI,[15],> 100 µM
same,TGI,[16],> 100 µM
same,TGI,[18],> 100 µM
